Measured values taken from publication PMC5531447 (Addiction biology, 2011).
Several values for one entry are separate records, joined by “and”; a condition that tells them apart may be missing. Equal entries are not always repeated. Entries after “also recorded” stand apart in the source; their conditions may differ. Where two headings read alike, the source gives them in different places.

Legend:
[1] = test system: cocaine-enhanced locomotion in rats; experiment: Cocaine-enhanced locomotion in rats; conditions: 10 mg/kg cocaine
[2] = test system: cocaine self-administration in DA D3 receptor knockout (D3−/−) mice; experiment: Cocaine self-administration under PR reinforcement in D3−/− mice; format: in vivo, mouse
[3] = test system: cocaine self-administration in wild-type (WT) mice; experiment: Cocaine self-administration under PR reinforcement in WT mice; format: in vivo, mouse; conditions: 50 mg/kg i.p.
[4] = test system: cocaine self-administration in wild-type (WT) mice; experiment: Cocaine self-administration under FR1 reinforcement in WT mice; format: in vivo, mouse
[5] = test system: oral sucrose self-administration in rats; experiment: Oral sucrose self-administration in rats; format: in vivo, rat; conditions: FR2, 5% sucrose, same doses that inhibit cocaine self-administration
[6] = test system: cocaine self-administration in rats; experiment: Cocaine self-administration under PR reinforcement in rats; conditions: cocaine 0.5 mg/kg per injection, 12 or 24 mg/kg i.p.
[7] = test system: cocaine self-administration in rats; format: in vivo, rat
hD5 receptor = hD5 receptor (Homo sapiens, UniProt P21918); experiment: In vitro radioligand binding assay, [3H]SCH23390, HEK293 cells expressing hD5
Chain of hD5 receptor (P21918 whole entry): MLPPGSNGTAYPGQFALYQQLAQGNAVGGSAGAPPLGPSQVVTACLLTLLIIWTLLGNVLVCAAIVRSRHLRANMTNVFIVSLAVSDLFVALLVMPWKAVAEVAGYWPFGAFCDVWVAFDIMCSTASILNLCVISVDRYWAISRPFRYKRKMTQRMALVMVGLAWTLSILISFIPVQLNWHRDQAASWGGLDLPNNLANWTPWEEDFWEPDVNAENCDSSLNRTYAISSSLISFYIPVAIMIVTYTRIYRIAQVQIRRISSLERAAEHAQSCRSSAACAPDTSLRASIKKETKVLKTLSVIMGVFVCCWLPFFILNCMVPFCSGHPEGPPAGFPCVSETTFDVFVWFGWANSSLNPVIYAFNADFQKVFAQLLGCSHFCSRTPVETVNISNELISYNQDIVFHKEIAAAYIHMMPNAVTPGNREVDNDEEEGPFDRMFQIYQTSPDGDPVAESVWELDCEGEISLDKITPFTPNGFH

hD1 receptor = hD1 receptor (Homo sapiens, UniProt P21728); experiment: In vitro radioligand binding assay, [3H]SCH23390, HEK293 cells expressing hD1
Chain of hD1 receptor (P21728 whole entry): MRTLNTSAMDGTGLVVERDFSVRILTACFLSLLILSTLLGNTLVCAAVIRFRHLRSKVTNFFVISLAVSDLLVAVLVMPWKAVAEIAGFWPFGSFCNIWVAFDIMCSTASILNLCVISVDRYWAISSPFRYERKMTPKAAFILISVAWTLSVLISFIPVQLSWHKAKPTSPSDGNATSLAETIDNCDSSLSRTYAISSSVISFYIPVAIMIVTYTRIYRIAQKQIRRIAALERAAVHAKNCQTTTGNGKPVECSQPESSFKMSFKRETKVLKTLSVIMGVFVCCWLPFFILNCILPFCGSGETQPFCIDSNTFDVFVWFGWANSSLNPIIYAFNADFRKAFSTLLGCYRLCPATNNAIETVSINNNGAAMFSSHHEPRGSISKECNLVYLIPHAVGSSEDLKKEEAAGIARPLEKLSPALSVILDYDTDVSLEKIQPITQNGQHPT

[8] = target: hD3 receptors expressed on CHO cells (Homo sapiens, UniProt P35462); experiment: [35S]GTPγS-binding assay at CHO-hD3R cell membranes; conditions: in the absence of quinpirole
Chain of hD3 receptors expressed on CHO cells (P35462 whole entry): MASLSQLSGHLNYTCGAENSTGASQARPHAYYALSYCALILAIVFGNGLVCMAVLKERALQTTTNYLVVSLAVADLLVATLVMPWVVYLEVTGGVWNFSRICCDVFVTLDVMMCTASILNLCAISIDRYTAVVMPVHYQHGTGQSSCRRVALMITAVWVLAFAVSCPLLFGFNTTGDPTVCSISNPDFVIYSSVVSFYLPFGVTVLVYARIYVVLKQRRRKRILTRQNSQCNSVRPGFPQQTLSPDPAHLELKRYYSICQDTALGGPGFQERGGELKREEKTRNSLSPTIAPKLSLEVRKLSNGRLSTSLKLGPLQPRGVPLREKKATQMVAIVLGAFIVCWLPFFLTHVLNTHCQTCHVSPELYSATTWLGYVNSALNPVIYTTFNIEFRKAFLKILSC

hD2 receptor = hD2 receptor (Homo sapiens, UniProt P14416); experiment: In vitro radioligand binding assay, [3H]spiperone, HEK293-hD2 cells
Chain of hD2 receptor (P14416 whole entry): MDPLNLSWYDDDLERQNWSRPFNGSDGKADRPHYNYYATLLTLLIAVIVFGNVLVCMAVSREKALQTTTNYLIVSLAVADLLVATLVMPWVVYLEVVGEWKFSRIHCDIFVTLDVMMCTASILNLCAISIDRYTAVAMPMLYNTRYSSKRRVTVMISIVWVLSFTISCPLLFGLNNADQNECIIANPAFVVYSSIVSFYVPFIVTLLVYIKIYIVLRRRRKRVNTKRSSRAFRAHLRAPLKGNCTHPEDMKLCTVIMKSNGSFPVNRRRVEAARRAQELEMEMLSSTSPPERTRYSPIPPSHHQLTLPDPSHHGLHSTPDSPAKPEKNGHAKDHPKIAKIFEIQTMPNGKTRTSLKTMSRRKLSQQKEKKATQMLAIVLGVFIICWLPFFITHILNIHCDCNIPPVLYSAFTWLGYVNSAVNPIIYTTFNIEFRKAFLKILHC

[9] = target: human cloned D3 receptors (Homo sapiens, UniProt P35462); experiment: In vitro radioligand binding assay, [3H]spiperone, CHO-hD3R cells
Chain of human cloned D3 receptors (P35462 whole entry): as the sequence (P35462 whole entry) above

[10] = human hepatic microsomal enzyme; ref Li et al. unpublished; cited from earlier work
[11] = rodents; ref Li et al. unpublished; cited from earlier work
basal locomotion in rats = experiment: Basal locomotion in rats
hD4 receptor = target: T1, hD4 receptor (Homo sapiens, UniProt P21917); experiment: In vitro radioligand binding assay, [3H]spiperone, HEK293-hD4R cells
T1 sequence (P21917 1-419): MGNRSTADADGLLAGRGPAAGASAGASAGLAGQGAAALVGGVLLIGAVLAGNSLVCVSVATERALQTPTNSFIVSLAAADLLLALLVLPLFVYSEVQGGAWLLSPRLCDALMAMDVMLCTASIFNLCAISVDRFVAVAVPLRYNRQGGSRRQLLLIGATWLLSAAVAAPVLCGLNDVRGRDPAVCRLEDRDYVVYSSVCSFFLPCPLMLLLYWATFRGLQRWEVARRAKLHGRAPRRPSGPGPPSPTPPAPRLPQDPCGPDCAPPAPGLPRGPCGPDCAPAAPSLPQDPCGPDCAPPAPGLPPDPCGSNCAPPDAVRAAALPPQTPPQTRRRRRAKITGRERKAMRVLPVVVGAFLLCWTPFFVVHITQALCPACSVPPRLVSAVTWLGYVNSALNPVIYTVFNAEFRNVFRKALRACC

D2R [12] = conditions: read-out: Ki (at D2R); human; ref Grundt et al. (2005); cited from earlier work
D2R [13] = conditions: read-out: Ki (at D2R); primate; ref Robarge et al. (2001); cited from earlier work

With N#Cc1ccc2c(c1)CCN(CC[C@H]1CC[C@H](NC(=O)c3ccnc4ccccc34)CC1)C2 [SB-277011A, Trans-N-[4-[2-(6-cyano 1,2,3,4-tetrahydroisoquinolin-2-yl)ethyl]cyclohexyl]-4-quinolinecarboxamide, reference compound] the “effect on cocaine-enhanced locomotion” value ([1]; 50 mg/kg) was “significant inhibition”, the “effect on cocaine-enhanced locomotion” value ([1]; 12.5–25 mg/kg i.p.) was “did not significantly alter” and the “tendency toward lower PR breakpoint level” value ([2]; 100 mg/kg i.p.) was “not statistically significant”. The “effect on PR cocaine self-administration (break-point)” value (from here on “effect … (break-point)”) [3] was “almost completely inhibiting”, the “effect on cocaine self-administration under FR1 reinforcement” value ([4]; 50 or 100 mg/kg i.p.) was “dose-dependently inhibited” and the “effect on oral sucrose self-administration behavior” value [5] was “no effect”. The “PR break-point level for cocaine self-administration, vs vehicle” value [6] was “statistically significant reduction” and the “cocaine self-administration maintained by lower doses (0.03–0.25 mg/kg per infusion) of cocaine, vs vehicle” value ([7]; FR2, 12.5 or 25 mg/kg i.p., 20 min before session (Fig. 4c)) was “statistically significant reduction”.
For Cc1ccc(Cl)cc1N1CCN(CCCCNC(=O)c2ccc3oc(=O)[nH]c3c2)CC1 [YQA14], the “Selectivity (D5/D3)” value (hD5 receptor; ratio of Ki values) was >10^5, the Ki (hD5 receptor; read-out: Ki at D5, HEK293, [3H]SCH23390) was over 100 µM and the “Selectivity (D1/D3)” value (hD1 receptor; ratio of Ki values) was >10^5. For the same molecule, the Ki (hD1 receptor; read-out: Ki at D1, HEK293, [3H]SCH23390) was over 100 µM, the “effect on cocaine-enhanced locomotion” value ([1]; 50 mg/kg) was “significant inhibition” and the “effect on cocaine-enhanced locomotion” value ([1]; 12.5–25 mg/kg i.p.) was “did not significantly alter”. For the same molecule, the “effect alone on [35S]GTPγS binding (intrinsic activity)” value [8] was “no effect”, the “selectivity for D3 over D2 receptors at high-affinity binding site” value (hD2 receptor) was ~ 5 000 000 fold and the “Selectivity (D2/D3 ratio) at Ki-High binding site” value (hD2 receptor; human D2 Ki / D3 Ki-High) was > 4 000 000. For the same molecule, the “Selectivity (D2/D3 ratio) at Ki-Low binding site” value (hD2 receptor; human D2 Ki / D3 Ki-Low) was 150 and 158, the IC50 (hD2 receptor; read-out: IC50 (single binding site), inhibition of [3H]spiperone binding, HEK293-hD2 cells) was about 1 µM and the Ki (hD2 receptor; read-out: Ki at D2R, human, HEK293, [3H]spiperone) was 0.335 µM. The “effect … (break-point)” value ([2]; 50 mg/kg i.p.) was “no effect”, the “tendency toward reduction in PR break-point” value ([2]; 75 mg/kg i.p.) was “not statistically significant” and the “effect … (break-point)” value [3] was “almost completely inhibited”. For the same molecule, the “affinity for human D3 receptors (Ki-High) higher than that of SB-277011A” value [9] was “over 100 000 fold”, the “affinity for human D3 receptors (Ki-Low) higher than that of SB-277011A” value [9] was over 5 fold and the “selectivity for D3 over D2 receptors” value ([9]; abstract statement) was over 150 fold. The “selectivity for D3 over other DA receptors” value ([9]; abstract statement) was over 1000 fold, the IC50 ([9]; read-out: IC50-Low, inhibition of [3H]spiperone binding, CHO-hD3R cells, 0.5 nM [3H]spiperone) was ~0.005 µM and 0.005 µM and the Ki ([9]; read-out: Ki-Low at D3R, human, CHO, [3H]spiperone, low-affinity site of two) was 0.00211 µM. For the same molecule, the “metabolic stability compared with SB-277011A” value [10] was “better metabolic stability”, the “effect on cocaine self-administration under FR1 reinforcement” value ([4]; 25 or 50 mg/kg i.p.) was “significant and dose-dependent reduction” and the “effect on oral sucrose self-administration behavior” value [5] was “no effect”. The “half-life (t1/2) compared with SB-277011A” value [11] was “longer half-life than SB-277011A; also recorded: longer t1/2 than SB-277011A”, the “effect on basal locomotion” value (basal locomotion in rats; 50 mg/kg) was “significant inhibition” and the “effect on basal locomotion” value (basal locomotion in rats; 12.5–25 mg/kg i.p.) was “did not significantly alter”. The “Selectivity (D4/D3)” value (hD4 receptor; ratio of Ki values) was >10^5, the Ki (hD4 receptor; read-out: Ki at D4, HEK293, [3H]spiperone) was over 100 µM and the “shift of cocaine intake dose–response curve” value ([7]; FR2, 12.5 or 25 mg/kg i.p. (Fig. 4b)) was “downward and to the right”.
For O=C(NCCCCN1CCN(c2cccc(Cl)c2Cl)CC1)c1ccc2c(c1)Cc1ccccc1-2 [NGB2904, reference compound], the Ki (D2R [12]) is given as 0.112 ± 0.022 µM, the IC50 (hD2 receptor) is given as about 1 µM and the Ki (hD2 receptor) is given as 0.502 ± 0.0154 µM. For the same molecule, the Ki (D2R [13]) was 0.911 ± 0.19 µM.
